SMILES strings stand for the structures.

Data set [1] deals with NEM157i, SU-DIPG-IVi and NEM163i DMG cells. Kind of data set: Proliferation / cell viability assay (Sulforhodamine B) in DMG cell lines. The format is cell-based, human. As to conditions: SU-DIPG-IVi and NEM157i; up to 30 μM; absence of GSK-126. As for the experimental part: Cell growth was measured with the In vitro Toxicology Assay kit (Sulforhodamine B, Sigma Aldrich, Saint Quentin Fallavier, France) according to manufacturer's instructions. Cells were plated at a density of 2000 cells per well in 96-well plates in triplicates. Absorbance was measured at 565 nm using the CLARIOstar multiplate reader (BMG Labtech, Champigny-sur-Marne, France) at indicated time points.

In data set [2] the test system is Huh6 and HepG2 hepatoblastoma cells. Kind of data set: Growth and viability of hepatoblastoma cells (Huh6 and HepG2), 2D and 3D spheroid. It counts as cell-based, human. The protocol: (§1) For 2D culture, a total of 2,000 cells/well for Huh6 and 3,000 cells/well for HepG2 were seeded in 96-well microtiter plates. Cell growth was measured at 24 h, 48h, 72h or 96h after genetic manipulation and at 48h or 72h after drug treatment using the in vitro MTS assay Kit or Sulforhodamine B (SRB, Absorbance at 565 nm) assay (Sigma) following manufacturer's instructions. For 3D culture, spheroids were formed as described above and microplates were incubated in an IncuCyte® S3 live cell analysis system and scanned every 8 hours. For genetic manipulation, the lentiviral transductions or the gene depletions were done before the plating. For drug treatments, depending on the experiment and the drug, spheroids were treated at day 4 or 5 for 48h or 72h. Cell viability assay in spheroids was done using 1 μM calcein AM (BioLegend) and 2 μM ethidium homodimer 1 (Sigma) for 30 minutes at 37° C. Spheroids were imaged using an IncuCyte® S3 live cell analysis system. For all cell viability assays, drugs were used at half maximal inhibitory concentration (IC50).

A further data set deals with Huh6 and HepG2 cells. The data set can be described thus: Clonogenicity assay. The format is cell-based, human. As to conditions: GSK-126 3 and 4 μM for Huh6 and HepG2; ATR 8 μM; SIM 4 μM; 10 days. As for the experimental part:
Huh6 and HepG2 cells were seeded at 500 and 1000 cells/well respectively in 12-well plates. After attachment, cells were treated with drugs.
Following incubation at 37° C. for 10 days, the cells were fixed with 4% PFA and stained with 0.05% crystal violet. Reading under the Fusion FX (Vilber Lourmat).

The subject of data set [3] is NEM157i, NEM163i and primary BXdmg1 cells. The data set can be described thus: DMG cell migration, wound scratch assay (IncuCyte). The format is cell-based, human. As for the experimental part:
2×10^4 cells/well were placed in a 96-well and incubated for 24h. An IncuCyte Wound Maker (96-pin wound making tool) was used to make scratches.
Migration was monitored by using the IncuCyte S3 live-cell analysis system (Essen BioScience, Ltd, Royston Hertfordshire, United Kingdom). […] Following functions have been used to optimize visibility of the cells: greyscale mode, bichrome mode, negative, contrast/luminosity, exposition/gamma, negative.

A further data set relates to Huh6 cells. The data set can be described thus: Huh6 tumor xenografts in NSG mice. The format is in vivo, NOD/LtSz-scid IL2R gamma null (NSG) mice. The conditions noted are these: intraperitoneal; GSK-126 50 mg/kg, ATR 20 mg/kg 3-times a week; cisplatin 1 mg/kg twice a week. As for the experimental part: NOD/LtSz-scid IL2R gamma null (NSG) mice were bred in standard conditions compliant with regulatory bodies (French government). Sterilized food and water were accessible ad libitum. One million of Huh6 cells in 50% of Matrigel were subcutaneously injected in a total volume of 100 μl in the right flank of 8- to 9-week-old female mice (26-32 g; APAFIS #32917-2021121316283534 v2, Agreement #B33063916, Ministère de l'Enseignement Supérieur, de la Recherche et de l'Innovation).
Tumor growth was monitored by caliper measurement until tumors reached an average volume of 250 mm3 (at day 12, see arrow). […] The vehicle (PBS with 5% DMSO) was injected 3-times a week. Tumor growth was monitored during 16 additional days until tumors control reached a size of 2000 mm3. Thus, all mice were euthanized. Blood was collected from all euthanatized mice and circulating ASAT, ALAT, creatinine, and urea were measured to evaluate the toxicity of the different treatments on the liver and kidneys.

Data set [4] deals with histone H3K27me3 in breast and prostate cancer cells. As to conditions: cited from earlier work.
The conditions of data set [5]: rat; cited from earlier work.
The test system of a further data set is HepG2 cells. Kind of data set: Cell viability assay (CellTiter 96 AQueous One / MTS) in HepG2. It counts as cell-based, human. The protocol:
as §1

For `COCCNC(=O)Nc1ccc2nc(-c3cccs3)c(-c3cccs3)nc2c1` [ACSS2 inhibitor], the “effect on DMG cell proliferation, inhibitor alone” value (shortened to “effect … inhibitor alone”) in data set [1] is listed as “no effect”.
`CC(C)c1c(C(=O)Nc2ccccc2)c(-c2ccccc2)c(-c2ccc(F)cc2)n1CC[C@@H](O)C[C@@H](O)CC(=O)O` [Atorvastatin]: the “concentration with antitumor effect, statin alone” value in data set [2] (72 h) is not below 50 µM. Also, the “proliferation and survival of hepatoblastoma cells (clonogenic cell assay)” value in the data set on Huh6 and HepG2 cells is reported as “little effect”. Further, in data set [3], the “migration compared to DMSO” value is on record as “slowed”. Also, in data set [1], the “effect … inhibitor alone” value is “no effect”. The “development of hepatoblastoma in mice (tumor volume)” value in the data set with Huh6 cells is “no effect”.
For the compound `CCCc1cc(C)[nH]c(=O)c1CNC(=O)c1cc(-c2ccnc(N3CCN(C)CC3)c2)cc2c1cnn2C(C)C` [GSK343, N-[(6-methyl-2-oxo-4-propyl-1H-pyridin-3-yl)methyl]-6-[2-(4-methylpiperazin-1-yl)pyridin-4-yl]-1-propan-2-ylindazole-4-carboxamide], the “histone H3K27me3 level” value in data set [4] is listed as “suppress”. Further, the clearance result in data set [5] is recorded as “high clearance”.
With `Cc1cc(C)c(CNC(=O)c2cc(-c3ccc(N4CCN(C)CC4)nc3)cc3c2cnn3C(C)C)c(=O)[nH]1` [GSK926, N-[(4,6-dimethyl-2-oxo-1H-pyridin-3-yl)methyl]-6-[6-(4-methylpiperazin-1-yl)pyridin-3-yl]-1-propan-2-ylindazole-4-carboxamide], the “histone H3K27me3 level” value in data set [4] is reported as “suppress”.
For `CCC(C)(C)C(=O)O[C@H]1C[C@@H](C)C=C2C=C[C@H](C)[C@H](CC[C@@H]3C[C@@H](O)CC(=O)O3)[C@H]21` [Simvastatin], in data set [2] (72 h), the “concentration with antitumor effect, statin alone” value was not below 20 µM.
Consider `CCN(c1cc(-c2ccc(CN3CCOCC3)cc2)cc(C(=O)NCc2c(C)cc(C)[nH]c2=O)c1C)C1CCOCC1` [Tazemetostat, N-[(4,6-dimethyl-2-oxo-1H-pyridin-3-yl)methyl]-3-[ethyl(oxan-4-yl)amino]-2-methyl-5-[4-(morpholin-4-ylmethyl)phenyl]benzamide], for which, in data set [2] (48 h), the “effective concentrations on growth of hepatoblastoma cells” value was “above 20 μM”. Further, in data set [2] (72 h, 8 μM Atorvastatin or 4 μM Simvastatin), the “sensitivity of hepatoblastoma cells in presence of Simvastatin or Atorvastatin” value is recorded as “significantly potentiates”.
As to `CN(C/C=C/C#CC(C)(C)C)Cc1cccc2ccccc12` [Terbinafine], the “effect … inhibitor alone” value in data set [1] is “no effect”.
As for `N.N.[Cl][Pt][Cl]` [cisplatin], in the data set with HepG2 cells, half-maximal inhibition (IC50) required 12 µM. Besides, the “development of hepatoblastoma in mice (tumor volume)” value in the data set with Huh6 cells is “impeded tumor growth”.

Values taken from patent US20240408081A1, “NOVEL SYNERGISTIC COMBINATIONS AND METHODS OF USE THEREOF FOR TREATING CANCERS” (UNIVERSITE DE BORDEAUX, priority 2021, published 2024).
